# Results as given in patent US20200155632A1, “COMPOSITION FOR TREATING AND PREVENTING MALE SEXUAL DISORDERS” (KOLINPHARMA S.P.A., priority 2017, published 2020).
# What was measured:
# [1] = tested on: subjects suffering from erectile dysfunction (from mild to moderate); details: 600 mg/daily, 26 subjects; cited from earlier work
# [2] = tested on: cGMP in ECV-304 cells (human vascular endothelium cells); experiment: cGMP levels by ELISA in ECV-304 cells after treatment with Menix active ingredients and associations; assay type: cell-based; design: Average % deviation from control (cGMP levels): concentration or dose not given beside the values; details: for pM (cGMP), levels of expression of cGMP: 48 hours of treatment, average of n=3 biological replicates, concentrations of Table 3, control 82.1; for Average % deviation from control (cGMP levels): 48 hours, vs non-treated cells
# Description: For this experiment, human vascular endothelium cells were selected (ECV-304). […] At this point, the cells were treated with trypsin and EDTA and were re-examined in appropriate culture flasks.
# The cGMP levels were determined by ELISA assay, following the operating instructions given in the protocol supplied by the manufacturer (cGMP ELISA KIT—STA 505-5, Cloud Clone Corp), running the assay in the acetylated embodiment to increase the sensitivity thereof.
# For the experiment, the ECV-304 cells were sowed in MW-6 and treated for 48 hours with the active ingredients of Menix and associations thereof. After the 48 hours had elapsed, the supernatants were collected and frozen at −80° C. until use. The untreated cells were used as a control.
# The base levels of cGMP were determined by ELISA assay, following instructions supplied by the manufacturer (STA 505-5 Cell Biolabs Inc).
# The results, expressed in terms of concentration (pM) of cGMP average±standard deviation (n=3 biological replicates), are set out in FIG. 3 and Table 4.
# diabetic rat = details: cited from earlier work
# [3] = tested on: subjects suffering from mild erectile dysfunction; details: 1.5 g daily for a month, oral, 24 subjects; cited from earlier work
# [4] = Solubility tests of the active ingredients of Menix; assay type: physicochemical; details: tested in order: culture medium, water, DMSO, organic solvents
# Description: Before being subjected to the cell assays, the active ingredients of Menix have been subjected to solubility tests to define the best solubilization agent for each of the assays.
# [5] = tested on: rats with acute arteriogenic erectile dysfunction; details: 2% p/v in water for three weeks; cited from earlier work
# [6] = oral administration; cited from earlier work
# aged rats = details: dissolved 1% in water; cited from earlier work
# [7] = tested on: rats affected by type-1 diabetes; details: 400 mg/kg/daily; cited from earlier work
# ICAM-1 and P-selectine = details: 2 g daily, adjuvant to sildenafil twice weekly; cited from earlier work
SMILES,"pM (cGMP), levels of expression of cGMP [2] [pM]",Average % deviation from control (cGMP levels) [2] [%],Solvent in which the active ingredient has been solubilized [4],further results
"O=C(O)CCCCC1CCSS1 (racemic) [α-LIPOIC ACID, alpha-lipoic acid]",60,−26.92,,Indicators connected to erectile dysfunction (IIEF-5) [1]: significant improvement; Levels of endothelial NOS and neuron NOS (diabetic rat; 65 mg/kg/daily for 15 days): increase in levels of endothelial NOS and of neuron NOS; Corpus cavernosum dysfunctions (diabetic rat; 300 mg/kg/daily for a month): prevented and ameliorated corpus cavernosum dysfunctions
"NC(=O)NCCCC(N)C(=O)O (centres unmarked) [CITRULLINE, 2-amino-5-(carbamoylamino)pentanoic acid]",140,70.52,Culture medium,Erectile function on EHS and IIEF-5 [3]: increase in erectile function; Erectile function [5]: significant improvement in erectile function; NO plasmatic levels [5]: increasing NO plasmatic levels; Blood levels of L-arginine compared with basic values [6]: increase in the blood levels of L-arginine
"CC(=O)O[C@H](CC(=O)[O-])C[N+](C)(C)C [N-ACETYL-L-CARNITINE, (R)-3-acetyloxy-4-trimethylammonio-butanoate]",22,−73.20,Water,
"NCCS(=O)(=O)O [TAURINE, 2-aminoethanesulphonic acid]",137,66.87,Culture medium,"Levels of NOS and NO in the rat's penis (aged rats): increases levels of both NOS and NO; Secretion of androgens, testosterone (aged rats): increases the secretion of androgens and in particular of testosterone; Sperm quality (count, vitality, motility) (aged rats): improves sperm quality; Levels of cGMP and eNOS in the corpus cavernosum [7]: increased the levels of both cGMP and eNOS; Pressure inside the corpus cavernosum [7]: increase in pressure inside the corpus cavernosum"
"NCC(=O)[O-].NCC(=O)[O-].[Zn+2] [Zn, zinc bisglycinate]",90,9.62,,
CCC(=O)O[C@H](CC(=O)[O-])C[N+](C)(C)C [propionyl-L-carnitine],,,,Endogenous levels of endothelial dysfunction markers such as ICAM-1 and P-selectine (ICAM-1 and P-selectine): significant reduction
